Entries after “also recorded” stand apart in the source; their conditions may differ.

One may read the NOAEL as the highest dose or exposure tested at which no adverse effect was seen.

One series in a line: Rat micronucleus assay. Conditions: Sprague Dawley, rat, in vivo; male rats, oral gavage; read-out: estimate of the maximum tolerated dose. The class given is in vivo. How it is done:
(§1) CBD-C4 was tested for its potential to induce micronuclei (MN) in the polychromatic erythrocytes (PCE) of the bone marrow of treated rats to induce DNA damage in the liver of the same animals.
(§2) CBD-C4 was administered at a dose of 125, 250 and 500 mg/kg/day during this study. Vehicle and a positive control of ethyl methanesulfonate (EMS) at a dose of 150 mg/kg/day were tested alongside the CBD-C4.
(§3) A range finding study was performed on 9 male young adult out-bred Sprague Dawley rats justifying the chosen dose levels of CBD-C4 used during the study.
(§4) Animals were allocated into groups of six with the exception of the positive control which comprised three animals.
(§5) Rats were dosed by oral gavage with test article suspended in sesame oil, vehicle (sesame oil) or positive control.
(§6) Blood samples were taken for bioanalysis and tissue samples were removed from animals at necropsy from the liver and femur.
(§7) Bone marrow sampling, micronucleus slide preparation and comet cell suspensions were undertaken to determine level of toxicity of CBD-C4.

For series [1], the system named is polychromatic erythrocytes (PCE) of the bone marrow. Description: Rat micronucleus assay. The class given is in vivo. How it is done:
as §1, §2, §3, §4, §5, §6, §7

Another series deals with DNA damage in the liver. Description: Alkaline Comet assay. The class given is in vivo, rat. How it is done:
as §1, §2, §3, §4, §5, §6, §7

Series [2] deals with Salmonella typhimurium (TA98, TA100, TA1535, TA1537 and TA102). The series is described as follows: Ames test. The class given is cell-based. As to conditions: absence and presence of S-9. As for the experimental part:
The aim of this study was to evaluate the potential mutagenic activity of CBD-C4 by examining its ability to revert five histidine-requiring strains of Salmonella typhimurium in the absence and presence of a rat liver metabolising system (S-9).
Control treatments were performed with 2-nitrofluorene (2NF) at a final concentration of 5 μg/plate; Sodium azide (NaN3) at a final concentration of 2 μg/plate; 9-aminoacridine (AAC) at a final concentration of 50 μg/plate; Mitomycin C (MMC) at a final concentration of 0.2 μg/plate; Benzo[a]pyrene (B[a]P) at a final concentration of 10 μg/plate; and 2-aminoanthracene (AAN) at a final concentration of 5 and 20 μg/plate.
Treatments were carried out both in the absence and presence of S-9 by addition of either buffer solution or 10% S-9 mix respectively.
Five strains of Salmonella typhimurium bacteria (TA98, TA100, TA1535, TA1537 and TA102) were used in this study.
Bacteria were cultured at 37±1° C. for 10 hours in nutrient broth, containing ampicillin or ampicillin and tetracycline as appropriate, to provide bacterial cultures in the range of approximately 10^8 to 10^9 cells/mL, based on cell count data from testing of each strain batch. […]
Following incubation, these plates were examined for evidence of toxicity to the background lawn, and where possible revertant colonies were counted. […]

For the next series, the system named is rats. The series is described as follows: 13-week oral toxicity study in rats. The class given is in vivo, rat. As for the experimental part:
(§8) The objective of the study was to determine the toxicity of CBD-C4 following daily oral (gavage) administration to the rat for 4 and 13 weeks. The toxicokinetic profile of the CBD-C4 was also assessed.
(§9) Groups of 10 male and 10 female rats were doses at 1, 10 and 100 mg/kg/day for either 4 or 13 weeks.
(§10) Assessment of toxicity of CBD-C4 was based on mortality, clinical observations, post-dose observations, body weights, food consumption, ophthalmic observations, clinical and anatomic pathology.
(§11) Blood samples were collected on days 1 and 28 and week 13 of the study.

Series [3] can be described thus: 13-week oral toxicity study in rats. The series is classed as in vivo, rat. Conditions: both sexes, rat, in vivo. As for the experimental part: as §8, §9, §10, §11
Where [4] appears, read: 125, 250 and 500 mg/kg/day oral gavage.
Setting [5] is: 1, 10 or 100 mg/kg/day oral gavage, 4 or 13 weeks.

On to `C=C(C)[C@@H]1CCC(C)=C[C@H]1c1c(O)cc(CCCC)cc1O` [CBD-C4, (1′R,2′R)-4-butyl-5′-methyl-2′-(prop-1-en-2-yl)-1′,2′,3′,4′-tetrahydro-[1,1′-biphenyl]-2,6-diol], for which, in the series “Rat micronucleus assay”, the MTD is about 500 mg/kg/day. In addition, in series [1] (setting [4]), the bone marrow toxicity entry is recorded as “no evidence of test article related bone marrow toxicity”. Further, the “micronucleus PCE frequencies” value in series [1] (all doses (125, 250 and 500 mg/kg/day) oral gavage) is on record as “comparable with the vehicle control group”. Moreover, the “induction of micronuclei in polychromatic erythrocytes of the bone marrow” value in series [1] (male rats treated up to 500 mg/kg/day) is “did not induce an increase in micronuclei; also recorded: No genotoxicity was observed”. Besides, the “% hedgehogs in liver” value with DNA damage in the liver (setting [4]) was “no dose-related increase”. Besides, in the series on DNA damage in the liver (all groups, 125, 250 and 500 mg/kg/day oral gavage), the “group mean tail intensity and tail moment” value was “comparable with the group mean vehicle control data”. In the series on DNA damage in the liver (up to 500 mg/kg/day oral gavage), the “DNA damage in the liver (Comet assay)” value is given as “did not induce DNA damage; also recorded: No genotoxicity was observed”. The “increases in revertant numbers vs concurrent vehicle control” value in series [2] (5-5000 μg/plate, all test strains) was “no increases in revertant numbers”. Besides, the mutagenic activity entry in series [2] (five strains) is “No genotoxicity was observed; also recorded: no evidence of any CBD-C4 mutagenic activity; also recorded: does not induce mutation”. Moreover, in the series with rats (setting [5]), the clinical pathology parameters entry is recorded as “no adverse changes”; the clinical signs result is reported as “no adverse clinical signs”; the “food consumption, body weight, body weight gains and ophthalmoscopy” value is on record as “unaffected”; the test article-related deaths entry is listed as “no test article-related deaths”. Besides, the tolerability result with rats (setting [5]) is “well tolerated”. Further, the liver findings entry in the series on rats (after 4 and 13 weeks of treatment, predominantly at 100 mg/kg/day, considered non-adverse) is “Large livers with correlating organ weight increase and centrilobular hypertrophy”. In series [3] (13-week daily oral gavage, rats), the NOAEL at 13 weeks came to 100 mg/kg/day. For the same compound, the NOAEL at 13 weeks in series [3] (13-week oral, sesame oil formulation, rats (summary)) stood at 100 mg/kg.

These data come from patent US20220016048A1, “CANNABIDIOL-TYPE CANNABINOID COMPOUND” (GW Research Limited, priority 2018, published 2022).
